From patent US7078395B1, “Methods for treating or preventing cancer by preventing, inhibiting or arresting cell cycling” (priority 1999, dated 2006)
Where “and” joins values, the source holds several entries; their conditions need not be identical. Identical values can stand only once.

Key:
[1] = system: MCF-7 breast cancer cells; test: Cell Titer 96 cell proliferation assay, 4-day drug exposure; format: cell-based; conditions: 4 days
Protocol: (§1) MCF-7 (ER+) and MDA-MB-231 (ER−) breast cancer cells were obtained from the American Type Culture Collection (Rockville, Md.). Cells were routinely cultured in 25 cm^2 culture flasks in Eagle's minimum essential medium (EMEM) with Hepes buffer (20 mM). This medium was supplemented with L-glutamine (2 mM), sodium hydrogen carbonate (10 mM), 1% non-essential amino acids and 5% (v/v) foetal calf serum (FCS). Before adding test compounds, cells were washed with phosphate-buffered saline (PBS) and treatments added in phenol-red free medium containing 2% stripped FCS and supplements. The effects of 2-MeOE1 or 2-MeOEMATE on the growth of MCF-7 cells was assessed using a Cell Titer 96 cell proliferation assay (Promega, Southampton, Hants, UK) according to the manufacturers' instructions. For this, cells (5000 per well) were cultured in medium containing phenol-red and 10% FCS and were exposed to a drug for 4 days before the assay was performed. For MDA-MB-231 cells, cell numbers were determined using a Coulter counter.

[2] = system: MCF-7 breast cancer cells; test: Irreversible inhibition of cell growth, Stage 1 and Stage 2 (Coulter cell counter); format: cell-based; conditions: for effect on cell growth compared with controls, Stage 1: 5 μm and 1 μm; for effect on cell growth compared with controls, Stage 1 / cell numbers, % of the control cell number, Stage 1: 6 days; for effect on cell numbers, Stage 2 (irreversible growth inhibition): re-seeded after 6-day treatment, further 6 days without drug
Protocol: MCF-7 breast cancer cells were seeded into multi-well culture plates at a density of 10^5 cells/well. Cells were allowed to attach and grown until about 30% confluent when they were treated as follows:
Cells were grown for 6 days in growth medium containing the above drugs with changes of medium/drug every 3 days. At the end of this period cell numbers were counted using a Coulter cell counter.
After treatment of cells for a 6-day period with the above drugs cells were re-seeded at a density of 10^4 Cells/well. No further treatments were added. Cells were allowed to continue to grow for a further 6 days in the presence of growth medium. At the end of this period cell numbers were again counted.
Stages 1 and 2 described above were repeated using Control—no treatment, EMATE 20 μM and EMATE 5 μM.
MCF-7 breast cancer cells were seeded into multi-well culture plates at a density of 10^5 cells/well. Cells were allowed to attach and grown until about 30% confluent when they were treated as follows: • Control—no treatment • Compound of Interest (COI) 20 μM
Cells were grown for 6 days in growth medium containing the COI with changes of medium/COI every 3 days. At the end of this period cell numbers were counted using a Coulter cell counter.
After treatment of cells for a 6-day period with the COI cells were re-seeded at a density of 10^4 cells/well. No further treatments were added. Cells were allowed to continue to grow for a further 6 days in the presence of growth medium. At the end of this period cell numbers were again counted.

[3] = system: MCF-7 breast cancer cells; test: Cell morphology by photomicrographs; format: cell-based
Protocol: as §1
Photomicrographs of control and treated cells were taken under normal conditions of light and exposure using an Olympus SL35 Type 12 camera under an Olympus CK2 microscope (×100 magnification).

[4] = system: nitrosomethylurea-induced mammary tumours; test: Growth of NMU-induced mammary tumours in intact rats; format: in vivo, rat; conditions: 20 mg/kg/day, p.o., 11 days, individual animals
Protocol: The effect of 2-MeOEMATE on mammary tumour growth was examined in a preliminary study using Ludwig rats (Harlan Olac, Bicester, UK) in which tumours were induced by inoculation of NMU. Tumour development was monitored regularly and when 0.5-1.0 cm^3 in volume, animals received vehicle (propylene glycol, 200 μl/day, p.o.), 2-MeOEMATE (20 mg/kg/day, p.o.) or 2-MeOE1 (20 mg/kg/day, p.o.) daily for an 11 day period. Tumour length and width was measured with callipers and tumour volumes calculated as described (21).

ZR-75-1 cells [5] = test: DNA content by flow cytometry of propidium iodide stained cells; format: cell-based; conditions: ZR-75-1, 500 nM
Protocol: (§2) MCF7, CAL51, CAMA1 and ZR-75-1 breast cancer derived cell lines were obtained from ATCC (MCF7, CAMA1, ZR-75-1) or from the Dutrillaux laboratory (CAL51) (22) and maintained in Dulbecco's modified Eagle's medium (DMEM) supplemented with 10% (v/v) fetal calf serum and antibiotics.
(§3) DNA content was determined by flow cytometric analysis of propidium iodide stained cells and TdT-mediated dUTP-nick end labelling (TUNEL), respectively, as described (20). The proportion of cells in G2/M phase of the cell cycle was calculated as a proportion of cells with […] DNA content. The proportion of cells with <G1 DNA content was calculated as a percentage of total cells.

CAMA1 cells [6] = test: as above; format: cell-based; conditions: CAMA1, 500 nM
Protocol: as §2, §3

MCF7 cells [7] = test: as above; format: cell-based; conditions: MCF7, 500 nM
Protocol: as §2, §3

CAL51 cells [8] = test: as above; format: cell-based; conditions: CAL51, 500 nM
Protocol: as §2, §3

[9] = system: MCF7, ZR-75-1, CAL51 and CAMA1 cells; test: Microtitre plate growth inhibition assay (FIG. 14); format: cell-based
MCF7 cells [10] = test: Proportion of cells in mitosis (PI stained cytospins, confocal microscopy); format: cell-based; conditions: 24 hours (control 4%)
Protocol: To determine the proportion of cells in mitosis, drug treated cells were collected by trypsinisation and cytospins prepared. Cells were fixed in ice cold methanol for 5 minutes, air dried and DNA was stained using propidium iodide (PI) (0.1 mg/ml in phosphate buffered saline (PBS) containing 10% (v/v) newborn calf serum and 0.05% (w/v) sodium azide). Cells were analysed by confocal microscopy using a Zeiss Axiovert 100 M microscope equipped with the LSM 510 confocal system (Zeiss, Jena, Germany).
Effect of estrone derivatives on mitosis in MCF7 cells. MCF7 cells were treated with the indicated compounds for 24 hours. Cells were recovered by trypsinisation and cytospins prepared. DNA was stained with PI and cells in mitosis (i.e., with condensed chromosomes) determined as a percentage of total cells.

ZR-75-1 cells [11] = test: TUNEL assay; format: cell-based; conditions: ZR-75-1, 500 nM for 72 hours
Protocol: as §3
(§4) We used the TUNEL assay to confirm that the cell death detected by flow cytometry of PI stained cells was due to apoptosis. Following exposure to 2-EtEMATE (500 nM for 72 hours) there was a significant increase in the proportion of CAL51 and CAMA1 cells undergoing apoptosis (60% and 37% TUNEL positive cells, respectively) (FIG. 16). By contrast, there was only a modest increase in TUNEL positivity in MCF7 or ZR-75-l cells (7% and 10%, respectively) treated with 2-EtEMATE at this concentration.

CAMA1 cells [12] = test: TUNEL assay; format: cell-based; conditions: CAMA1, 500 nM for 72 hours
Protocol: as §3, §4

MCF7 cells [13] = test: TUNEL assay; format: cell-based; conditions: MCF7, 500 nM for 72 hours
Protocol: as §3, §4

CAL51 cells [14] = test: TUNEL assay; format: cell-based; conditions: CAL51, 500 nM for 72 hours
Protocol: as §3, §4

[15] = rats, oral (16); cited from earlier work

COc1cc2c(cc1O)CC[C@@H]1[C@@H]2CC[C@]2(C)C(=O)CC[C@@H]12 [2-MeOE1, 2-methoxyoestrone, reference compound]
inhibition of proliferation of MCF-7 cells ([1]; 0.1 μM): little effect
inhibition of proliferation of MCF-7 cells ([1]; 1.0 μM): little effect
inhibition of proliferation of MCF-7 cells ([1]; 10 μM): 19%
effect on cell growth compared with controls, Stage 1 [2]: little effect on cell growth
effect on cell numbers, Stage 2 (irreversible growth inhibition) [2]: little effect on cell numbers
effect on cell morphology ([3]; 1 μM, 24 h): little effect on cell morphology
reduction in tumour volume [4]: little effect on tumour growth and no change in tumour volume and 25%

C[C@]12CC[C@@H]3c4ccc(O)cc4CC[C@H]3[C@@H]1CCC2=O [Oestrone]
effect on cell morphology ([3]; 10 μM): did not affect cell morphology

CCc1cc2c(cc1OS(N)(=O)=O)CCC1C2CCC2(C)C(=O)CCC12 (centres unmarked) [2-EtEMATE, 2-Ethylestrone-3-O-sulfamate]
<G1 DNA content, percent of total cells (ZR-75-1 cells [5]; 24 hours): 1%
G1/S, percentage of total cells with a 2N to 4N DNA content (ZR-75-1 cells [5]; 24 hours): 84%
G2/M, percentage of total cells with a 2N to 4N DNA content (ZR-75-1 cells [5]; 24 hours): 15%
<G1 DNA content, percent of total cells (ZR-75-1 cells [5]; 48 hours): 6%
G1/S, percentage of total cells with a 2N to 4N DNA content (ZR-75-1 cells [5]; 48 hours): 60%
G2/M, percentage of total cells with a 2N to 4N DNA content (ZR-75-1 cells [5]; 48 hours): 40%
<G1 DNA content, percent of total cells (ZR-75-1 cells [5]; 72 hours): 12%
G1/S, percentage of total cells with a 2N to 4N DNA content (ZR-75-1 cells [5]; 72 hours): 37%
G2/M, percentage of total cells with a 2N to 4N DNA content (ZR-75-1 cells [5]; 72 hours): 60% and 63%
<G1 DNA content, percent of total cells (ZR-75-1 cells [5]; 96 hours): 9%
G1/S, percentage of total cells with a 2N to 4N DNA content (ZR-75-1 cells [5]; 96 hours): 20%
G2/M, percentage of total cells with a 2N to 4N DNA content (ZR-75-1 cells [5]; 96 hours): 80%
<G1 DNA content, percent of total cells (CAMA1 cells [6]; 24 hours): 4%
G1/S, percentage of total cells with a 2N to 4N DNA content (CAMA1 cells [6]; 24 hours): 33%
<G1 DNA content, percent of total cells (CAMA1 cells [6]; 48 hours): 16%
G1/S, percentage of total cells with a 2N to 4N DNA content (CAMA1 cells [6]; 48 hours): 25%
G2/M, percentage of total cells with a 2N to 4N DNA content (CAMA1 cells [6]; 48 hours): 75%
<G1 DNA content, percent of total cells (CAMA1 cells [6]; 72 hours): 36%
G1/S, percentage of total cells with a 2N to 4N DNA content (CAMA1 cells [6]; 72 hours): 33%
G2/M, percentage of total cells with a 2N to 4N DNA content (CAMA1 cells [6]; 72 hours): 67%
G1/S, percentage of total cells with a 2N to 4N DNA content (CAMA1 cells [6]; 96 hours): 33%
G2/M, percentage of total cells with a 2N to 4N DNA content (CAMA1 cells [6]; 96 hours): 67%
<G1 DNA content, percent of total cells (MCF7 cells [7]; 24 hours): 5%
G1/S, percentage of total cells with a 2N to 4N DNA content (MCF7 cells [7]; 24 hours): 63%
G2/M, percentage of total cells with a 2N to 4N DNA content (MCF7 cells [7]; 24 hours): 37%
<G1 DNA content, percent of total cells (MCF7 cells [7]; 48 hours): 5%
G1/S, percentage of total cells with a 2N to 4N DNA content (MCF7 cells [7]; 48 hours): 38%
<G1 DNA content, percent of total cells (MCF7 cells [7]; 72 hours): 12%
G1/S, percentage of total cells with a 2N to 4N DNA content (MCF7 cells [7]; 72 hours): 34%
G2/M, percentage of total cells with a 2N to 4N DNA content (MCF7 cells [7]; 72 hours): 66%
<G1 DNA content, percent of total cells (MCF7 cells [7]; 96 hours): 8%
G1/S, percentage of total cells with a 2N to 4N DNA content (MCF7 cells [7]; 96 hours): 29%
G2/M, percentage of total cells with a 2N to 4N DNA content (MCF7 cells [7]; 96 hours): 71%
<G1 DNA content, percent of total cells (CAL51 cells [8]; 24 hours): 2%
G1/S, percentage of total cells with a 2N to 4N DNA content (CAL51 cells [8]; 24 hours): 38%
<G1 DNA content, percent of total cells (CAL51 cells [8]; 48 hours): 10%
G1/S, percentage of total cells with a 2N to 4N DNA content (CAL51 cells [8]; 48 hours): 18%
G2/M, percentage of total cells with a 2N to 4N DNA content (CAL51 cells [8]; 48 hours): 82%
<G1 DNA content, percent of total cells (CAL51 cells [8]; 72 hours): 21%
G1/S, percentage of total cells with a 2N to 4N DNA content (CAL51 cells [8]; 72 hours): 32%
G2/M, percentage of total cells with a 2N to 4N DNA content (CAL51 cells [8]; 72 hours): 68%
G1/S, percentage of total cells with a 2N to 4N DNA content (CAL51 cells [8]; 96 hours): 23%
G2/M, percentage of total cells with a 2N to 4N DNA content (CAL51 cells [8]; 96 hours): 77%
lowest dose that gave significant growth inhibition in each cell line [9]: 500 nM
cell numbers, % of the control cell number, Stage 1 ([2]; 1 m (so in the source)): 50%
cell numbers, % of the control cell number, Stage 1 ([2]; 5 μm): 36%
effect on cell numbers, Stage 2 (irreversible growth inhibition) [2]: severely growth restricted
mitotic cells, percentage of total cells (MCF7 cells [10]; 500 nM): 29%
mitotic cells, percentage of total cells (MCF7 cells [10]; 5 μM): 49%
TUNEL positive cells (ZR-75-1 cells [11]): 10%
TUNEL positive cells (CAMA1 cells [12]): 37%
TUNEL positive cells (MCF7 cells [13]): 7%
TUNEL positive cells (CAL51 cells [14]): 60%

CC12CCC3c4ccc(OS(N)(=O)=O)cc4CCC3C1CCC2=O (centres unmarked) [EMATE, oestrone-3-O-sulphamate]
cell number, Stage 1 ([2]; 5 μM): EMATE 5 μM = 139% control
cell number, Stage 2 ([2]; 5 μM): EMATE 5 μM = 98% control
cell number, Stage 1 ([2]; 20 μM): EMATE 20 μM = 119% control
cell number, Stage 2 ([2]; 20 μM): EMATE 20 μM = 103% control
effect on cell morphology ([3]; 10 μM): did not affect cell morphology
oral uterotrophic activity relative to estradiol [15]: 100 times

CCc1cc2c(cc1O)CC[C@@H]1[C@@H]2CC[C@]2(C)C(=O)CC[C@@H]12 [2-EtE1, 2-Ethylestrone, reference compound]
effect on cell growth compared with controls, Stage 1 [2]: little effect on cell growth
effect on cell numbers, Stage 2 (irreversible growth inhibition) [2]: little effect on cell numbers
mitotic cells, percentage of total cells (MCF7 cells [10]; 500 nM): 4%
mitotic cells, percentage of total cells (MCF7 cells [10]; 5 μM): 6%
